Source: paper PMC9369794 (Molecules, 2022)
Counter-ions that a name gives are not always drawn.

Assays:
[1] = Hydrodynamic diameter and colloidal stability of aggregates by dynamic light scattering; format: physicochemical; conditions: for mean size (hydrodynamic diameter) / zeta potential: 37 °C; for PDI: sd^2/mean size^2
Description: In contrary, all spectra gave a hypsochromic shift and loss of fine-structure when the DMSO solutions were diluted with PBS, which refers to the formation of H-type (card-pack) aggregates (Figures S1–S12). Since DMSO-containing aqueous systems are more suitable for biological studies, we examined these solution by dynamic light scattering (DLS) spectroscopy to gain more information about the particles. The concentrations of the examined solutions were the same as used in the ABTS/TEAC measurements (0.3125–5.00 μM, see next section).
Size determination of aggregates and the colloidal stability of the sample dispersions were determined by dynamic light scattering measurements, where the hydrodynamic diameter of particles, and zeta potential values were collected. The number-weighted size distribution indicated one main peak in each case, the polydispersity index (PDI) was calculated as sd^2/mean size^2. For the particle size analysis Malvern Zetasizer Nano S instrument and for the zeta potential determination Malvern Zetasizer Nano Z instrument were used (Malvern Panalytical Ltd., Great Malvern, Worcestershire, UK). The measurements were carried out in autocorrelation mode, and the following parameters were kept constant: scattering angle 173°, attenuator 11 and its factor 0.0146, measurement position 4.65 mm. The concentrations of sample dispersions were between 0.3125 and 5 µM. The dispersion medium was PBS. Each samples was examined after 6 min incubation period at 37 °C.

[2] = TEAC assay using ABTS radical; conditions: 6 min, ratio of slopes to trolox (melatonin dissolved in EtOH); for TEAC from THF: stock in THF diluted with PBS pH 7.4, 37 °C; for TEAC from DMSO: stock in DMSO diluted with PBS pH 7.4, 37 °C
Description: This method uses a redox reaction between ABTS^•+ radical cation and the examined antioxidants, which act as the reducing agents. […] As the carotenoids and the conjugates are poorly soluble in water, they were dissolved first either in small amounts of freshly distilled tetrahydrofuran (THF) or in dimethylsulfoxide (DMSO), and these stock solutions were diluted with phosphate-buffered saline (PBS) to the final nominal concentration.
The TEAC values were determined in isotonic phosphate buffer of pH 7.4. The buffer solution was made by dissolving 9.55 g of DPBS powder in distilled water to form 1L of solution (composition: 0.138 M NaCl, 0.0027 M KCl, 0.0081 M Na2HPO4, 0.0015 M KH2PO4). The assay was performed according to a literature process with slight modifications. The ABTS^•+ radical cation was produced by reacting 7 mM 2,2′-azino-bis(3-ethylbenzothiazoline-6-sulfonic acid) and 2.45 mM potassium persulfate in water. The stock ABTS^•+ solution was prepared 12–16 h before the experiments, and stored at room temperature in dark. The absorbance of the ABTS^•+ solution was set to 0.70 ± 0.05 at 734 nm by a ca. 100-fold dilution with phosphate-buffered saline (PBS). […] The stock solutions were diluted with PBS such that equal amounts of the diluted solutions were added to the ABTS^•+ reagent to obtain final antioxidants concentrations of 0.3125, 0.625, 1.25, 2.50, 3.75, 5 μM, respectively. In the blank (0 μM), the solutions of the antioxidants were substituted with THF or DMSO.
The antioxidants were incubated with ABTS^•+ solution at 37 °C for 6 min. During the reaction of ABTS^•+ with the antioxidants the absorbance of the solution decreases. The percentage inhibition of absorbance at 734 nm was calculated as (A0 − Aantioxidant)/A0, where A0 is the absorbance of the ABTS^•+ solution and Aantioxidant is the absorbance measured after the addition of the antioxidant. The determinations were carried out at each concentration in triplicate. The calculated values were plotted against the final concentration of the antioxidants. The slopes of the curves were compared with that for trolox, the TEAC value is the ratio of the slopes for the antioxidant and for trolox.

[3] = FRAP assay for the antioxidant capacity; parameters: key to FRAP: slope of concentration-absorbance line divided by Trolox slope; conditions: stock in THF, acetate buffer pH 3.0, 37 °C, 15 min; ratio of slopes to trolox (melatonin in EtOH)
Description: In the FRAP method the antioxidant reduces Fe^3+ to Fe^2+ in an acidic medium. These experiments were performed in an acetate buffer of pH 3.0, the stock solutions of the examined antioxidants were prepared in THF. The antioxidant capacities were compared to that of Trolox as a standard, just like in the ABTS assays.
A modified literature process was used. The FRAP reagent should also be prepared freshly each day. 2,4,6-Tris(2-pyridyl)-s-triazin (TPTZ) was dissolved in a 200 mM HCl solution and diluted with water to get a final 40 mM HCl and 10 mM TPTZ concentration. For the preparation of the FRAP reagent 30 mL of 20 mM FeCl3 solution and 30 mL of 10 mM TPTZ solution were mixed, and 300 mL of 300 mM acetate buffer with pH 3.0 was added (a pH lower than usual was used to avoid the precipitation of the TPTZ). The FRAP reagent was incubated at 37 °C for 15 min. 150 μL of antioxidant dissolved in THF was mixed with 2.85 mL FRAP reagent solution, and incubated at 37 °C for 15 min in dark. Measurements were carried out at each antioxidant concentration (0, 7.5; 10; 12.5; 15; 17.5 μM final concentration) in triplicate. In the 0 μM solution the antioxidant solution was substituted with acetate buffer (pH 3.0). The FRAP was determined at 600 nm: the absorbance values were plotted as a function of concentration of the sample compounds and that of Trolox for the standard reference data. The FRAP values were calculated as in the ABTS assays, i.e., the slope of the concentration-absorbance lines for the carotenoid derivatives was divided by that for the trolox.

[4] = Study of aggregation by UV-Vis spectrophotometry; format: physicochemical
Description: It has been known for a long while that carotenoids or their derivatives can be prone to supramolecular organization in water or water-organic solvent mixtures. This behaviour is especially interesting because this higher organization can modulate or alter biological properties of carotenoids, as well [40]. A tendency to form supramolecular structures can be tested by recording the UV spectra in an organic solvent and increasing the ratio of water in the sample. […] We have some recent experience of such behaviour of carotenoid-flavonoid conjugates.
All of our adducts were tested with the method above using tetrahydrofurane (THF) or dimethylsulfoxide (DMSO) with increasing ratio of phosphate-buffered saline (PBS), which was the medium of the antioxidant measurements. […]
1. Study of Aggregation by UV-Vis Spectrophotometry
Starting from THF solutions: each conjugate was dissolved in freshly distilled THF and the solutions were diluted
either with THF or THF-PBS mixtures to obain final solutions of identical carotenoid concentration. […]
Figure S1. UV-spectra of 8’-apo-β-carotenol succinate ( 6) ( a) in THF and in THF-PBS mixtures ( 1:1 , 1:3); (b) in DMSO
Figure S2. UV-spectra of zeaxanthin bissuccinate ( 7) ( a) in THF and in THF-PBS mixtures ( 1:1 , 1:3); (b) in DMSO and
Figure S3. UV-spectra of zeaxanthin monosuccinate ( 11) ( a) in THF and in THF-PBS mixtures ( 1:1 , 1:3); (b) in DMSO […]

[5] = 0.3125 μM in PBS from DMSO stock
[6] = 0.625 μM in PBS from DMSO stock

melting point [°C] | SMILES | TEAC from THF [2] | FRAP [3] | TEAC from DMSO [2] | also measured
123 to 124 | CC1=C(/C=C/C(C)=C/C=C/C(C)=C/C=C/C=C(C)/C=C/C=C(\C)COC(=O)CCC(=O)O)C(C)(C)CCC1 (as salt: succinate) [Compound 6, 8′-Apo-β-carotenol succinate] |  |  |  | 
 | CC1=C(/C=C/C(C)=C/C=C/C(C)=C/C=C/C=C(C)/C=C/C=C(\C)C=O)C(C)(C)CCC1 [8'-Apo-β-carotenal, 8′-apo-β-carotenal, reference compound] | 0.953 | 0.443 | 1.19 | 
148 to 149 | CC1=C[C@H](OC(=O)CCC(=O)O)CC(C)(C)[C@H]1/C=C/C(C)=C/C=C/C(C)=C/C=C/C=C(C)/C=C/C=C(C)/C=C/C1=C(C)C[C@@H](OC(=O)CCC(=O)O)CC1(C)C (as salt: succinate) [Compound 10, Lutein bissuccinate] |  |  |  | 
143 to 144 | CC1=C(/C=C/C(C)=C/C=C/C(C)=C/C=C/C=C(C)/C=C/C=C(C)/C=C/C(=O)[C@]2(C)C[C@@H](OC(=O)CCC(=O)O)CC2(C)C)C(C)(C)C[C@H](OC(=O)CCC(=O)O)C1 (as salt: succinate) [Compound 9, Capsanthin bissuccinate] |  |  |  | 
 | CC1=C(/C=C/C(C)=C/C=C/C(C)=C/C=C/C=C(C)/C=C/C=C(C)/C=C/C2=C(C)C[C@@H](O)CC2(C)C)C(C)(C)C[C@H](O)C1 [Compound 2, zeaxanthin, reference compound] | 2.016 | 0.351 | 2.70 | 
 | CC1=C[C@H](O)CC(C)(C)[C@H]1/C=C/C(C)=C/C=C/C(C)=C/C=C/C=C(C)/C=C/C=C(C)/C=C/C1=C(C)C[C@@H](O)CC1(C)C [Compound 5, lutein, reference compound] | 1.571 | 0.161 | 1.02 | 
 | CC1=C(/C=C/C(C)=C/C=C/C(C)=C/C=C/C=C(C)/C=C/C=C(C)/C=C/C(=O)[C@]2(C)C[C@@H](O)CC2(C)C)C(C)(C)C[C@H](O)C1 [Compound 4, capsanthin, reference compound] | 1.036 | 0.197 | 0.62 | 
152 to 153 | CC1=C(/C=C/C(C)=C/C=C/C(C)=C/C=C/C=C(C)/C=C/C=C(C)/C=C/C2=C(C)C[C@@H](OC(=O)CCC(=O)O)CC2(C)C)C(C)(C)C[C@H](OC(=O)CCC(=O)O)C1 (as salt: succinate) [Compound 7, Zeaxanthin bissuccinate] |  |  |  | 
 | CC1=C(/C=C/C(C)=C/C=C/C(C)=C/C=C/C=C(C)/C=C/C=C(C)/C=C/C2=C(C)C[C@@H](O)CC2(C)C)C(C)(C)CCC1 [Compound 3, cryptoxanthin, reference compound] | 2.062 | 0.441 | 1.61 | 

SMILES | melting point [°C] | TEAC from THF [2] | FRAP [3] | TEAC from DMSO [2] | also measured
COc1ccc2[nH]cc(CCNC(=O)CNC(=O)CCC(=O)O[C@@H]3CC(C)=C(/C=C/C(C)=C/C=C/C(C)=C/C=C/C=C(C)/C=C/C=C(C)/C=C/C4=C(C)CCCC4(C)C)C(C)(C)C3)c2c1 [Compound 15, Cryptoxanthin-melatonin conjugate] | 153 to 154 | 1.777 | 0.154 |  | mean size (hydrodynamic diameter) [1, 5]: 29.79 nm; zeta potential [1, 5]: −13.4 mV; PDI ([1]; 0.3125 μM in PBS): 0.0356; mean size (hydrodynamic diameter) [1, 6]: 31.22 nm; zeta potential [1, 6]: −23.5 mV; PDI ([1]; 0.625 μM in PBS): 0.1230; mean size (hydrodynamic diameter) ([1]; 1.25 μM in PBS from DMSO stock): 74.91 nm; zeta potential ([1]; 1.25 μM in PBS from DMSO stock): −20.8 mV; PDI ([1]; 1.25 μM in PBS): 0.1051; mean size (hydrodynamic diameter) ([1]; 2.5 μM in PBS from DMSO stock): 305.10 nm; zeta potential ([1]; 2.5 μM in PBS from DMSO stock): −20.4 mV; PDI ([1]; 2.5 μM in PBS): 0.1649; mean size (hydrodynamic diameter) ([1]; 3.75 μM in PBS from DMSO stock): 826.80 nm; zeta potential ([1]; 3.75 μM in PBS from DMSO stock): −11.8 mV; PDI ([1]; 3.75 μM in PBS): 0.0840; mean size (hydrodynamic diameter) ([1]; 5 μM in PBS from DMSO stock): 615.10 nm; zeta potential ([1]; 5 μM in PBS from DMSO stock): −15.7 mV; PDI ([1]; 5 μM in PBS): 0.0992; type of aggregates formed ([4]; from THF:aqueous solutions): J-type (head-to-tail) aggregates; change of UV spectrum with increasing ratio of PBS ([4]; starting from THF solutions): bathochromic shift
CC1=C(/C=C/C(C)=C/C=C/C(C)=C/C=C/C=C(C)/C=C/C=C(C)/C=C/C2=C(C)C[C@@H](OC(=O)CCC(=O)O)CC2(C)C)C(C)(C)CCC1 (as salt: succinate) [Compound 8, β-Cryptoxanthin succinate] | 142 to 143 |  |  |  | 
